Measurements taken from ChEMBL document CHEMBL1201862, “PubChem BioAssay data set” (2004).
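Interpolation was linear, between the two tested concentrations surrounding the appropriate level; five concentrations were tested over 48 hours in 96-well plates. Abbreviation: GI50, concentration required for 50% inhibition of growth.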 The source made the active and inactive calls. Rule as the data show it: active = GI50 up to about 1.1 µM and inactive = higher.

Columns and labels:
Test in all cases: NCI-60 cell line screen, 48 h
SNB-75 = test system: SNB-75
SK-MEL-2 = test system: SK-MEL-2
RPMI-8226 = test system: RPMI-8226
HCT-116 = test system: HCT-116
SK-OV-3 = test system: SK-OV-3
LOX IMVI = test system: LOX IMVI
UO-31 = test system: UO-31
A498 = test system: A498
UACC-257 = test system: UACC-257
SR = test system: SR
IGROV-1 = test system: IGROV-1
NCI/ADR-RES = test system: NCI/ADR-RES
NCI-H460 = test system: NCI-H460
A549 = test system: A549
K562 = test system: K562
MCF7 = test system: MCF7
SK-MEL-5 = test system: SK-MEL-5
OVCAR-3 = test system: OVCAR-3
SK-MEL-28 = test system: SK-MEL-28
SF-539 = test system: SF-539

Compound	GI50 (SNB-75)	GI50 (SK-MEL-2)	GI50 (RPMI-8226)	GI50 (HCT-116)	GI50 (SK-OV-3)	GI50 (LOX IMVI)	GI50 (UO-31)	GI50 (A498)	GI50 (UACC-257)	GI50 (SR)	GI50 (IGROV-1)	GI50 (NCI/ADR-RES)	GI50 (NCI-H460)	GI50 (A549)	GI50 (K562)	GI50 (MCF7)	GI50 (SK-MEL-5)	GI50 (OVCAR-3)	GI50 (SK-MEL-28)	GI50 (SF-539)
CC1=NN(c2ccccc2)C2(C1)C(Cl)C(=O)N2c1nc2ccccc2s1 (stereo not drawn)	80.5 µM (inactive)	23.8 µM (inactive)	18.1 µM (inactive)	21.5 µM (inactive)	32.1 µM (inactive)	13.5 µM (inactive)	26.6 µM (inactive)	53 µM (inactive)	80.2 µM (inactive)	22.9 µM (inactive)	16.6 µM (inactive)	23.9 µM (inactive)	31 µM (inactive)	35.2 µM (inactive)	33.6 µM (inactive)	43.9 µM (inactive)	20.8 µM (inactive)	15.8 µM (inactive)	36.6 µM (inactive)	
CCCCS(=O)(=O)CCC(N)P(=O)(O)O (stereo not drawn)	> 100 µM (inactive)	> 100 µM (inactive)	> 100 µM (inactive)	> 100 µM (inactive)	> 100 µM (inactive)	> 100 µM (inactive)	> 100 µM (inactive)		> 100 µM (inactive)	> 100 µM (inactive)	> 100 µM (inactive)	> 100 µM (inactive)	> 100 µM (inactive)	> 100 µM (inactive)	> 100 µM (inactive)	> 100 µM (inactive)	> 100 µM (inactive)	> 100 µM (inactive)	> 100 µM (inactive)	
CC(C)=NNc1cnnc2ccc([N+](=O)[O-])cc12	58.9 µM (inactive)	> 100 µM (inactive)	31.6 µM (inactive)	59.6 µM (inactive)	> 100 µM (inactive)		35.2 µM (inactive)		> 100 µM (inactive)	30.3 µM (inactive)	21.4 µM (inactive)	> 100 µM (inactive)	33.3 µM (inactive)	> 100 µM (inactive)		57.8 µM (inactive)	55.3 µM (inactive)			> 100 µM (inactive)
O=[N+]([O-])c1ccc(/C=C(/c2ccc([N+](=O)[O-])o2)S(=O)(=O)c2ccccc2)o1	19 µM (inactive)	17.4 µM (inactive)	0.128 µM (active)	1.71 µM (inactive)	29.4 µM (inactive)		4.34 µM (inactive)		1.84 µM (inactive)	1.02 µM (active)	16.6 µM (inactive)	18 µM (inactive)	21.2 µM (inactive)	18.7 µM (inactive)	2.96 µM (inactive)	11.8 µM (inactive)	11.9 µM (inactive)	6.14 µM (inactive)	15.6 µM (inactive)	18.1 µM (inactive)
CC1(C)CC[C@]2(C(=O)O)CC[C@]3(C)C(=CC[C@@H]4[C@@]5(C)CC[C@H](OC6OC(CO)C(O)C(O)C6OC6OC(CO)C(O)C(O)C6O)C(C)(C)[C@@H]5CC[C@]43C)[C@@H]2C1 (stereo partly drawn)	21.6 µM (inactive)	0.0509 µM (active)	23.2 µM (inactive)	17.1 µM (inactive)	17.8 µM (inactive)	28.2 µM (inactive)	20.6 µM (inactive)	18.5 µM (inactive)	20.1 µM (inactive)	22.5 µM (inactive)	18.9 µM (inactive)	21.2 µM (inactive)	21 µM (inactive)	18.3 µM (inactive)	19.8 µM (inactive)	19.6 µM (inactive)	19 µM (inactive)	15.7 µM (inactive)	14.6 µM (inactive)	
COC1CCON1C(=O)c1ccccc1 (stereo not drawn)	> 10 µM (inactive)	> 10 µM (inactive)	> 10 µM (inactive)	> 10 µM (inactive)	> 10 µM (inactive)	> 10 µM (inactive)	> 10 µM (inactive)		> 10 µM (inactive)	> 10 µM (inactive)	> 10 µM (inactive)	> 10 µM (inactive)	> 10 µM (inactive)	> 10 µM (inactive)	> 10 µM (inactive)	> 10 µM (inactive)	> 10 µM (inactive)	> 10 µM (inactive)	> 10 µM (inactive)	> 10 µM (inactive)
COc1cccc(C2CC(C)(O)Oc3cc4c(cc32)OCO4)c1 (stereo not drawn)	18.6 µM (inactive)	9.53 µM (inactive)	16.1 µM (inactive)	9.44 µM (inactive)	16.9 µM (inactive)	22.3 µM (inactive)	23.3 µM (inactive)		37.6 µM (inactive)	4.58 µM (inactive)	24 µM (inactive)	16.3 µM (inactive)	16.1 µM (inactive)	31 µM (inactive)	19.5 µM (inactive)	17.9 µM (inactive)	14.2 µM (inactive)	19.4 µM (inactive)	52.6 µM (inactive)	
CC(=O)C(=C(c1ccccc1)c1ccccc1)c1ccccc1	87.7 µM (inactive)		52.6 µM (inactive)	> 100 µM (inactive)	> 100 µM (inactive)	> 100 µM (inactive)	> 100 µM (inactive)		> 100 µM (inactive)	31.8 µM (inactive)		> 100 µM (inactive)	> 100 µM (inactive)	> 100 µM (inactive)	62.7 µM (inactive)	> 100 µM (inactive)	> 100 µM (inactive)	> 100 µM (inactive)	> 100 µM (inactive)	> 100 µM (inactive)
N#Cc1nc2ccccc2nc1N1CCN(c2ccc([N+](=O)[O-])cc2)CC1	> 100 µM (inactive)	> 100 µM (inactive)	> 100 µM (inactive)	> 100 µM (inactive)	> 100 µM (inactive)	> 100 µM (inactive)	> 100 µM (inactive)	> 100 µM (inactive)	> 100 µM (inactive)	0.0339 µM (active)	> 100 µM (inactive)	> 100 µM (inactive)	> 100 µM (inactive)	> 100 µM (inactive)		> 100 µM (inactive)	> 100 µM (inactive)		> 100 µM (inactive)	
N#CC(C#N)=C/C=C(\Sc1c(Cl)c(Cl)nc(Cl)c1Cl)c1ccc(Cl)cc1	20.1 µM (inactive)	32.4 µM (inactive)	4.1 µM (inactive)	10.2 µM (inactive)	24.4 µM (inactive)	5.56 µM (inactive)	29.8 µM (inactive)		14.8 µM (inactive)	3.75 µM (inactive)	18.7 µM (inactive)	12.8 µM (inactive)	26.4 µM (inactive)	> 100 µM (inactive)	5.93 µM (inactive)	31.1 µM (inactive)	13 µM (inactive)	11.6 µM (inactive)	19.2 µM (inactive)	19.4 µM (inactive)
O=C1O[C@H]2[C@@H]3OC(=O)c4cc(O)c(O)c(O)c4-c4c(cc(O)c(O)c4O)C(=O)OC[C@H]2O[C@@H](OC(=O)c2cc(O)c(O)c(O)c2)[C@@H]3OC(=O)c2cc(O)c(O)c3c2[C@@H]2C1=CC(=O)C(O)(O)C2(O)O3 (stereo partly drawn)	24.6 µM (inactive)	29.9 µM (inactive)	38.3 µM (inactive)	16.9 µM (inactive)	11 µM (inactive)	13.3 µM (inactive)	21.7 µM (inactive)	82.8 µM (inactive)	51.6 µM (inactive)	29 µM (inactive)	52.8 µM (inactive)	39.3 µM (inactive)	33 µM (inactive)	25.9 µM (inactive)	29.6 µM (inactive)	25.2 µM (inactive)	25.5 µM (inactive)	35.6 µM (inactive)	> 100 µM (inactive)	
